Test results from PubChem BioAssay (NCI).
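Compound exposure: 48 hours, 5 concentrations, 96-well plates. TGI denotes the concentration required for complete inhibition of growth.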

What was measured:
Test in all cases: NCI tumour cell line growth inhibition, 48 h
[1] = system: LOX IMVI melanoma
[2] = system: SK-MEL-28 melanoma
[3] = system: NCI-H460 lung
[4] = system: OVCAR-8 ovarian
[5] = system: MOLT-4 leukemia
[6] = system: UACC-257 melanoma
[7] = system: A549 NSCLC
[8] = system: SF-268 CNS
[9] = system: 786-0 renal
[10] = system: MDA-N
[11] = system: SN12C renal

Compound | TGI [1] [µM] | TGI [2] [µM] | TGI [3] [µM] | TGI [4] [µM] | TGI [5] [µM] | TGI [6] [µM] | TGI [7] [µM] | TGI [8] [µM] | TGI [9] [µM] | TGI [10] [µM] | TGI [11] [µM]
Cc1cccc(N(CCC#N)S(=O)(=O)c2ccccc2)c1 | > 100 | > 100 | > 100 | > 100 | > 100 | > 100 | > 100 | > 100 | > 100 | > 100 | > 100
CN1CCN(C(=S)N(C)C(=O)c2ccc(Cl)cc2)CC1 | > 100 | > 100 | > 100 | > 100 | > 100 | > 100 | > 100 | > 100 | > 100 | > 100 | > 100
CC(C)/C(Cl)=N\OC(=O)NNc1ccccc1 | 36.9 | > 100 | > 100 | > 100 | 17.7 | > 100 | > 100 | > 100 | > 100 | > 100 | > 74.7
O=C1N[C@@H]2c3c(csc3Br)C(=O)[C@@H]2O1 | 41.3 | > 100 | > 100 | 57.6 | 52.4 | 58.9 | > 100 | > 100 | > 100 | 67.6 | > 100
O=C1/C(=C/c2ccc([N+](=O)[O-])cc2)CNC/C1=C\c1ccc([N+](=O)[O-])cc1 | 5.93 | 5.49 | 12.7 | 8.36 | > 38 | > 100 | > 70.7 | 4.47 | 3.18 | 25.5 | 15.5
CN1CN(c2ccccc2)C2(CCN(CCCC3(c4cccs4)OCCO3)CC2)C1=O | > 100 | > 100 | > 100 | > 100 | > 100 | > 100 | > 100 | > 100 | > 100 | > 100 | > 100
CCOP(=O)(OCC)/C(F)=C/c1ccccc1 | > 100 | > 100 | > 100 | > 100 | > 100 | > 100 | > 100 | > 100 | > 100 | > 100 | > 100
Cc1ccc(C2=Nc3c(c(C)nn3-c3ccccc3)N=C(C(=O)O)C2)cc1 | > 10 | > 10 | > 10 | > 10 | > 10 | > 10 | > 10 | > 10 | > 10 | > 10 | > 10
O=C1CC(c2ccc([N+](=O)[O-])cc2)C2(C(=O)NC(=S)NC2=O)C(c2ccc([N+](=O)[O-])cc2)C1 (configuration not stated) | 39.4 | > 100 | 42.2 | 45.1 | > 100 | 40.9 | 50.4 | 45.6 | 87.7 | > 100 | 53.4
CC(C)c1c(P(=O)(c2ccccc2)c2ccccc2)n(C)c2ccccc12 | > 100 | > 100 | > 100 | > 100 | > 100 | > 100 | > 100 | > 100 | > 100 | > 100 | > 100
C=CC/C(C(=O)OC)=C(/C(=O)OC)N(CCC)CCC | > 100 | > 100 | > 100 | > 100 | > 100 | > 100 | > 100 | > 100 | > 100 | > 100 | > 100
C(=Nc1ccc(-c2nc3ccccc3s2)cc1)c1ccco1 | > 100 | > 100 | > 100 | > 100 | > 100 | > 100 | > 100 | > 100 | > 100 | > 100 | > 100
O=C1/C(=C/c2ccc(F)cc2)CNC/C1=C\c1ccc(F)cc1 | 2.33 | 2.68 | 2.36 | 9.52 | > 40.5 | 28 | 18.1 | 4.06 | 1.45 | 5.67 | 6.71
O=[N+]([O-])C(=C(Sc1ccccc1)Sc1ccccc1)C(Cl)=C(Cl)Cl | 1.09 | 1.09 | 16.6 | 0.831 | 0.216 | 1.1 | 6.59 | 5.37 | 0.188 | 0.675 | 1.35
CC(=O)OCC1OC(n2c(=S)[nH]c(-c3ccccc3)c(C#N)c2=O)C(OC(C)=O)C(OC(C)=O)C1OC(C)=O (configuration not stated) | > 100 | > 100 | > 100 | > 100 | > 100 | > 100 | > 100 | > 100 | > 100 | > 100 | > 100
Cc1nc(Cl)c(CBr)c(Cl)n1 | 1.77 | 3.07 | 8.38 | 6.47 | 1.09 | 3.37 | 12.4 | 8.85 | 1 | 2.97 | 3.75
N#CC(C#N)=C1CCCS(=O)(=O)c2ccccc21 | > 100 | > 100 | > 100 | > 100 | > 100 | > 100 | > 100 | > 100 | > 100 | > 100 | > 100
CCN(CC)CCCn1c(=O)c2cccnc2n2c3c(=O)n(C)c(=O)n(C)c3nc12 | > 100 | > 100 | > 100 | > 100 | > 100 | > 100 | > 100 | > 100 | > 100 | > 100 | > 100
COC(=O)CCCC(=O)C(=Nc1c(Cl)cccc1Cl)NNc1ccc(Cl)cc1 | > 100 | > 100 | > 100 | > 100 | 76.6 | > 100 | > 100 | > 100 | > 100 | > 100 | > 100
CC(C)CCNC(=O)c1ccc(CNC(=O)/C=C/c2ccc(OCc3ccccc3)cc2)cc1 | > 100 | > 100 | > 100 | > 100 | > 100 | > 100 | > 100 | > 100 | > 100 | > 100 | > 100
CN(C)c1ccc(/C(Br)=C2\OC(=O)c3ccccc32)cc1 | > 100 | > 100 | > 100 | > 100 | > 100 | > 100 | > 100 | > 100 | > 100 | > 100 | > 100
O=C(O)c1ccc(NS(=O)(=O)Cc2ccccc2)cc1 | > 100 | > 100 | > 100 | > 100 | > 100 | > 100 | > 100 | > 100 | > 100 | > 100 | > 100
Nc1ncnc2c1ncn2C(=O)NC12CC3CC(CC(C3)C1)C2 | > 100 | > 100 | > 100 | > 100 | > 100 | > 100 | > 100 | > 100 | > 100 | > 100 | > 100
COc1ccc2c(c1)C(=O)c1ccccc1C2 | > 100 | > 100 | > 100 | > 100 | > 100 | > 100 | > 100 | > 100 | > 100 | > 100 | > 100
c1ccc2c(c1)CCCN1CCc3ccccc3C21 (configuration not stated) | > 100 | > 100 | > 100 | > 100 | > 100 | > 100 | > 100 | > 100 | > 100 | 70.4 | > 100
N#Cc1c2c(c(Nc3ccc(F)cc3)n3c1nc1ccccc13)CCC2 | 5.37 | 23.7 | 23 | 5.83 | > 100 | 24.1 | 22.5 | 18.1 | 3.25 | 9.75 | 4.59
CSc1c(C(=O)Nc2ccc(C)cc2)c(N)[nH]c(=O)c1C#N | > 100 | > 100 | > 100 | > 100 | > 100 | > 100 | > 100 | > 100 | > 100 | > 100 | > 100
